Measured values taken from US9771389B2, “Tylosin derivatives and method for preparation thereof” (BAYER ANIMAL HEALTH GMBH, priority 2013, dated 2017).
Values after ≈ are worked out from the molar mass of the structure shown.

Legend:
[1] = tested on: M. hemolytica KB346 (Tilmicosin-low sensitivity strain); assay: Paper disc assay, M. hemolytica KB346; format: cell-based, Mannhemia hemolytica; settings: 10 mg/6 mm disk; Table 5
Description: (1) Antibacterial activities against Mannheimia and Pasteurella were determined by the following steps: • 1) M. hemolytica KB345 (Tilmicosin-sensitivity strain) and M. hemolytica KB346 (Tilmicosin-low sensitivity strain) were provided. KB 345 strain stored at −80° C. was seeded to BHIB agar medium (10 mL) by using Microbank beads (Pro-Lab) and platinum nail. After statically incubating the KB 345 strain for 24 hours at 37° C., it was seeded to maintaining slant BHIB agar medium (7 mL) by using platinum loop, further statically incubated for 24 hours at 37° C. to obtain slant. One platinum loop of KB 345 strain stored at the slant was inoculated into a large test tube charged with BHIB liquid medium (10 mL) and then incubated for 24 hours at 37° C. with shaking. • 2) A paper disc (ADVANTEC, Φ:6 mm) was impregnated with a solution of test compound and dried under reduced pressure. • 3) To a melted BHIB agar medium was inoculated 1% of the broth obtained from step 1) above to prepare a test plate. After the medium set, the paper disc prepared in step 2) above was put on the plate and it was incubated at 37° C. • 4) After one day, the inhibition zone diameter and clarity (A to E) were determined. For KB346 strain, the same procedures were repeated.

[2] = tested on: Bacillus subtilis ATCC6633; assay: Paper disc assay, Bacillus subtilis; format: cell-based; settings: S
Description: (§1) (2) Antibacterial activities against other bacteria were determined with Micrococcus luteus ATCC9341 (1), Bacillus subtilis […] (s), Escherichia coli NIHJ (c), Xanthomonas campestris KB88 (X), Mucor racemosus IFO 4581 (Mu) and Candida albicans ATCC 64548 (Ca).
(§2) Bacillus subtilis ATCC6633 was incubated in Davis synthetic medium and then the seed broth was combined with the medium in the ratio of 1:99 to obtain a test plate. Micrococcus luteus ATCC9341, Escherichia coli NIHJ and Xanthomonas campestris KB88 were respectively incubated in Nutrient agar medium and inoculated at 0.2%, 0.5% and 1.0%. Mucor racemosus IFO 4581 and Candida albicans ATCC 64548 were respectively incubated in GY agar medium and then inoculated at 0.3% and 0.2%.
(§3) A paper disc (ADVANTEC, Φ:6 mm) was impregnated with a solution of test compound and dried under reduced pressure. The paper disc was put on the test plate and it was incubated for 24 hours at 37° C. After incubation, the inhibition zone diameter and clarity (A to E) were determined.

[3] = tested on: Micrococcus luteus ATCC9341; assay: Paper disc assay, Micrococcus luteus; format: cell-based; settings: column 1
Description: as §1, §2, §3

[4] = tested on: Escherichia coli NIHJ; assay: Paper disc assay, Escherichia coli; format: cell-based; settings: c
Description: as §1, §2, §3

[5] = tested on: Xanthomonas campestris KB88; assay: Paper disc assay, Xanthomonas campestris; format: cell-based; settings: X
Description: as §1, §2, §3

[6] = tested on: Mannheimia haemolytica, 3 isolates; assay: MIC against Mannheimia haemolytica isolates; format: cell-based; settings: Mannheimia haemolytica, 3ISOLATES, 3 Mannheimia haemolytica isolates; broth dilution method; read-out: Range of minimum inhibitory concentrations (MIC)
Description: (§4) Minimal inhibitory concentrations (MICs) were determined against the most prevalent pathogens in cattle (Mannheimia Haemolytica, 3 isolates) and swine (A. pleuropneumoniae, 6 isolates). In addition the activity of several compounds was tested against two bacterial species, i.e. Mannheimia haemolytica and Actinobacillus pleuropneumoniae, which are considered as the most important bacterial respiratory pathogens in cattle and swine, respectively.

[7] = tested on: Actinobacillus pleuropneumoniae, 6 isolates; assay: MIC against Actinobacillus pleuropneumoniae isolates; format: cell-based; settings: 6ISOLATES; 6 Actinobacillus pleuropneumoniae isolates; broth dilution method; read-out: Range of minimum inhibitory concentrations (MIC)
Description: as §4

[8] = tested on: Arcanobacterium pyogenes; assay: MIC50 mastitis pathogens, broth dilution; format: cell-based; settings: Trueperella pyogenes, A. pyogenes, 7 to 12 isolates, 24 hours
From the text: (§5) The activity of several compounds against bacterial mastitis pathogens has been tested under in-vitro conditions according to a recognized procedure (CLSI, document […]-A3, 2008). In this test 7 to 12 representative bacteria belonging to 7 bacterial species that typically cause mastitis in dairy cattle, i.e. Staphylococcus aureus, coagulase negative staphylococci (CNS), Streptococcus uberis, Streptococus dysgalactiae, Streptococcus agalactiae, Arcanobacterium pyogenes and Escherichia coli, were exposed to two-fold dilutions of the test compounds. After 24 hours of incubation the concentration that inhibited the growth of this bacteria was determined. It could be shown that all these bacterial mastitis pathogens were highly susceptible to the test compounds.

[9] = tested on: Escherichia coli; assay: MIC50 mastitis pathogens, broth dilution; format: cell-based; settings: E. coli, 7 to 12 isolates, 24 hours
From the text: as §5

[10] = tested on: Staphylococcus aureus; assay: MIC50 mastitis pathogens, broth dilution; format: cell-based; settings: S. aureus, 7 to 12 isolates, 24 hours
From the text: as §5

[11] = tested on: Streptococcus agalactiae; assay: MIC50 mastitis pathogens, broth dilution; format: cell-based; settings: Str agalactiae, 7 to 12 isolates, 24 hours
From the text: as §5

[12] = tested on: Streptococcus uberis; assay: MIC50 mastitis pathogens, broth dilution; format: cell-based; settings: Str uberis, 7 to 12 isolates, 24 hours
From the text: as §5

[13] = tested on: Streptococus dysgalactiae; assay: MIC50 mastitis pathogens, broth dilution; format: cell-based; settings: Str dysgalactiae, 7 to 12 isolates, 24 hours
From the text: as §5

[14] = tested on: coagulase negative staphylococci (CNS); assay: MIC50 mastitis pathogens, broth dilution; format: cell-based; settings: 7 to 12 isolates, 24 hours
From the text: as §5

[15] = tested on: S. aureus bacteria (strain Newbould); assay: Mouse mastitis model of infection; format: in vivo, mice; settings: for mean S. aureus count in glands: 14 hours after application, untreated 8.64 log 10
From the text: The clinical efficacy of compound YT709 against mastitis caused by S. aureus was shown in lactating mice according to a recognized published procedure (E. Brouillette, G. Grondin, C. Lefebvre, B. G. Talbot, F. Malouin, Mouse mastitis model of infection for antimicrobial compound efficacy studies against intracellular and extracellular forms of Staphylococcus aureus, Veterinary Microbiology, 101, (2004), 253-262). Into the glands of lactating mice S. aureus bacteria (strain Newbould) were instilled and allowed to multiply. Bacterium S. aureus Newbould is an isolate which was isolated from a clinical case of bovine mastitis and which also causes typical mastitis infection in dairy cattle upon experimental, intramammary infection. Four hours after the intramammary infection of lactating mice with S. aureus Newbould, compound YT709 was instilled into the infected glands. Different intramammary dosages of YT709 were tested and their efficacy compared to an infected, untreated control group. Fourteen hours after intramammary application of YT709, the glands of the treated and untreated mice were removed, homogenized and the number of S. aureus bacteria counted in 10-fold dilutions of the homogenized glands. The mean S. aureus count of 8 untreated glands was 10^8.64 (8.64 log 10) bacteria. The mean S. aureus count in 6 glands that had been treated with 200 microgram YT709 was 10^5.10 bacteria (5.10 log 10). […] The mean S. aureus count in the 5 glands that had been treated with 400 microgram YT709 was 10^2.34 bacteria (2.34 log 10).

Row | MIC [7] [µg/mL] | MIC50 [8] [µg/mL] | MIC50 [9] [µg/mL] | MIC50 [10] [µg/mL] | MIC50 [11] [µg/mL] | MIC50 [12] [µg/mL] | MIC50 [13] [µg/mL] | MIC50 [14] [µg/mL] | SMILES | Inhibition zone ([2]; 0.1 mg/6 mm disc) [mm] | Inhibition zone ([2]; 1 mg/6 mm disc) [mm] | Inhibition zone ([2]; 10 mg/6 mm disc) [mm] | Inhibition zone ([3]; 0.1 mg/6 mm disc) [mm] | Inhibition zone ([3]; 1 mg/6 mm disc) [mm] | Inhibition zone ([3]; 10 mg/6 mm disc) [mm] | Inhibition zone ([4]; 10 mg/6 mm disc) [mm] | Inhibition zone ([5]; 0.1 mg/6 mm disc) [mm] | Inhibition zone ([5]; 1 mg/6 mm disc) [mm] | Inhibition zone ([5]; 10 mg/6 mm disc) [mm] | MIC [6] [µg/mL] | also measured
1 | 2 to 4 (≈ 2.44 to 4.87 µM) | 0.008 (≈ 0.00974 µM) | 8 (≈ 9.74 µM) | 0.5 (≈ 0.609 µM) | 0.03 (≈ 0.0365 µM) | 0.03 (≈ 0.0365 µM) | 0.12 (≈ 0.146 µM) | 0.25 (≈ 0.304 µM) | CC[C@H]1OC(=O)C[C@@H](O)[C@H](C)[C@@H](O[C@@H]2OC(C)[C@@H](O)C(N(C)C)C2O)[C@@H](CCNCCn2cc(-c3cnc4ccccc4c3)nn2)C[C@@H](C)C(=O)/C=C/C(C)=C/[C@@H]1CO (stereo partly drawn) [YT732] |  |  |  |  |  |  |  |  |  |  | 1 to 4 (≈ 1.22 to 4.87 µM) | 
2 | 8 (≈ 9.46 µM) | 0.06 (≈ 0.0709 µM) | 8 (≈ 9.46 µM) | 0.5 (≈ 0.591 µM) | 0.125 (≈ 0.148 µM) | 0.12 (≈ 0.142 µM) | 0.25 (≈ 0.295 µM) | 0.5 (≈ 0.591 µM) | CC[C@H]1OC(=O)C[C@@H](O)[C@H](C)[C@@H](O[C@@H]2OC(C)[C@@H](O)C(N(C)C)C2O)[C@@H](CCNCCn2cc(-c3ccc(-c4ccccc4)cc3)nn2)C[C@@H](C)C(=O)/C=C/C(C)=C/[C@@H]1CO (stereo partly drawn) [YT721] |  |  |  |  |  |  |  |  |  |  | 1 to 4 (≈ 1.18 to 4.73 µM) | 

Further lines, the compound ahead of its results:

Row | SMILES | MIC [7] [µg/mL] | MIC50 [8] [µg/mL] | MIC50 [9] [µg/mL] | MIC50 [10] [µg/mL] | MIC50 [11] [µg/mL] | MIC50 [12] [µg/mL] | MIC50 [13] [µg/mL] | MIC50 [14] [µg/mL] | Inhibition zone ([2]; 0.1 mg/6 mm disc) [mm] | Inhibition zone ([2]; 1 mg/6 mm disc) [mm] | Inhibition zone ([2]; 10 mg/6 mm disc) [mm] | Inhibition zone ([3]; 0.1 mg/6 mm disc) [mm] | Inhibition zone ([3]; 1 mg/6 mm disc) [mm] | Inhibition zone ([3]; 10 mg/6 mm disc) [mm] | Inhibition zone ([4]; 10 mg/6 mm disc) [mm] | Inhibition zone ([5]; 0.1 mg/6 mm disc) [mm] | Inhibition zone ([5]; 1 mg/6 mm disc) [mm] | Inhibition zone ([5]; 10 mg/6 mm disc) [mm] | MIC [6] [µg/mL] | also measured
3 | CC[C@H]1OC(=O)C[C@@H](O)[C@H](C)[C@@H](O[C@@H]2O[C@H](C)[C@@H](O)[C@H](N(C)C)[C@H]2O)[C@@H](CCN2C[C@H](C)C[C@H](C)C2)C[C@@H](C)C(=O)/C=C/C(C)=C/[C@@H]1CO[C@@H]1O[C@H](C)[C@@H](O)[C@@H](OC)[C@H]1OC [Tilmicosin, tilmicosin, reference compound] |  |  |  |  |  |  |  |  | 14 | 11 | 18 | 12 | 19 | 27.5 | 20 | 12 | 20 | 30 |  | Inhibition zone [1]: 11.0 mm; Inhibition zone ([4]; 1 mg/6 mm disc): 13 mm
4 | CC[C@H]1OC(=O)C[C@@H](O)[C@H](C)[C@@H](O[C@@H]2O[C@H](C)[C@@H](O)[C@H](N(C)C)[C@H]2O)[C@@H](CCn2cc(-c3ccsc3)nn2)C[C@@H](C)C(=O)/C=C/C(C)=C/[C@@H]1CO[C@@H]1O[C@H](C)[C@@H](O)[C@@H](OC)[C@H]1OC [YT14, 20-(4-(thiophene-3-yl)-1H-1,2,3-triazol-1-yl)-20-deoxodesmycosin] |  |  |  |  |  |  |  |  | 8 | 11 | 15 | 13.5 | 20.5 | 26.5 | 7 | 7 | 16 | 22 |  | 
5 | CC[C@H]1OC(=O)C[C@@H](O)[C@H](C)[C@@H](O[C@@H]2OC(C)[C@@H](O)C(N(C)C)C2O)[C@@H](CCN(Cc2ccccc2)Cc2cn(-c3cnc4ccccc4c3)nn2)C[C@@H](C)C(=O)/C=C/C(C)=C/[C@@H]1CO (stereo partly drawn) [YT709] | 2 to 4 (≈ 2.23 to 4.46 µM) | 0.008 (≈ 0.00892 µM) | 16 (≈ 17.8 µM) | ≤ 0.03 | 0.06 (≈ 0.0669 µM) | 0.06 (≈ 0.0669 µM) | 0.06 (≈ 0.0669 µM) | ≤ 0.03 |  |  |  |  |  |  |  |  |  |  | 2 to 4 (≈ 2.23 to 4.46 µM) | reduction of number of bacteria vs untreated glands ([15]; 200 microgram intramammary): about 3500 fold; mean S. aureus count in glands ([15]; 200 microgram intramammary, 6 glands): 5.10 log 10; glands in which the infection was cleared ([15]; 400 microgram intramammary): 2 out of 5; reduction of number of bacteria vs untreated glands ([15]; 400 microgram intramammary): about two million; mean S. aureus count in glands ([15]; 400 microgram intramammary, 5 glands): 2.34 log 10
